Results as given in US20030100580A1, “Urotensin-II receptor antagonists” (priority 2002, published 2003).

How the values were obtained:
[1] = target: T1, cloned human and rat GPR-14 (UniProt Q9UKP6); assay: Radioligand binding ([125I] h-U-II) to HEK-293 cell membranes containing GPR-14; settings: HEK-293 membranes, 200 pM [125I] h-U-II; human or rat receptor not specified
T1 sequence (Q9UKP6 1-389): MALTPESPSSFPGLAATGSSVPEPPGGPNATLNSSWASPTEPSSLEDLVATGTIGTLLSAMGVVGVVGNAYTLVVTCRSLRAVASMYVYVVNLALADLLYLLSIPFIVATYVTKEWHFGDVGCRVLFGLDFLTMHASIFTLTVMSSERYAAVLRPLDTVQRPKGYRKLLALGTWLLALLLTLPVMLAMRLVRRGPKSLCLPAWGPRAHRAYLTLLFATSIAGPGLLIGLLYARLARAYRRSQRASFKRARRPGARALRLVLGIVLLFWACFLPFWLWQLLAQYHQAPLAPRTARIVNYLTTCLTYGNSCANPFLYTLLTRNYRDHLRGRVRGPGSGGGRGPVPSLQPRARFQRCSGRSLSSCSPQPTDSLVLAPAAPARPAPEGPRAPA
Protocol: HEK-293 cell membranes containing stable cloned human and rat GPR-14 (20 ug/assay) were incubated with 200 pM [125I] h-U-II (200 Ci/mmol^−1 in the presence of increasing concentrations of test compounds in DMSO (0.1 nM to 10 uM), in a final incubation volume of 200 ul (20 mM Tris-HCl, 5 mM MgCl2). Incubation was done for 30 minutes at room temperature followed by filtration GF/B filters with Brandel cell harvester. ^125I labeled U-U binding was quantitated by gamma counting. Nonspecific binding was defined by ^1251I U-II binding in the presence of 100 nM of unlabeled human U-II. Analysis of the data was performed by nonlinear least square fitting.

[2] = system: rat-isolated aorta; settings: cited from earlier work

## CN(C)CCOc1cc(NS(=O)(=O)c2ccc(Br)cc2)ccc1I [Example 8, 4-Bromo-N-[4-iodo-3-(2-dimethylamino-ethoxy)-phenyl]-benzenesulfonamide]
[1]
  Ki: 1.3 µM

## COc1ccc(S(=O)(=O)Nc2ccc(Cl)c(OCCN(C)C)c2)cc1OC [Example 1, N-[4-Chloro-3-(2-dimethylamino-ethoxy)phenyl]-3,4-dimethoxy-benzenesulfonamide]
other
  melting point: 228 to 229 °C

## CC(C)[C@H](NC(=O)[C@@H]1CSSC[C@H](NC(=O)[C@H](CC(=O)O)NC(=O)[C@@H]2CCCN2C(=O)[C@@H](NC(=O)[C@@H](N)CCC(=O)O)[C@@H](C)O)C(=O)N[C@@H](Cc2ccccc2)C(=O)N[C@@H](Cc2c[nH]c3ccccc23)C(=O)N[C@@H](CCCCN)C(=O)N[C@@H](Cc2ccc(O)cc2)C(=O)N1)C(=O)O [Human Urotensin-II]
[2]
  contractile activity: most potent contractile agonist identified to date
